Source: ChEMBL document CHEMBL1201862, “PubChem BioAssay data set” (2004)
Values joined by “and” are separate entries in the source; they are usually repeats but may differ in a detail not shown here. Equal values may be shown once.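 All cell lines were grown in 96-well plates and treated with compound for 48 hours. GI50 marks 50% less growth.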 Active and inactive are the calls of the source. Rule as the data show it: active = GI50 up to about 1.1 µM and inactive = higher.

How the values were obtained:
Assay in all cases: NCI-60 cell line screen, 48 h
SK-MEL-2 = system: SK-MEL-2
OVCAR-8 = system: OVCAR-8
RPMI-8226 = system: RPMI-8226
A549 = system: A549
SF-539 = system: SF-539
HCC 2998 = system: HCC 2998
K562 = system: K562
OVCAR-3 = system: OVCAR-3
NCI-H522 = system: NCI-H522
EKVX = system: EKVX
HOP-62 = system: HOP-62
HT-29 = system: HT-29
OVCAR-4 = system: OVCAR-4
RXF 393 = system: RXF 393
CAKI-1 = system: CAKI-1
SR = system: SR

Measured: GI50

Cc1cccc(C)c1NC(=O)C1C(=O)N(c2c(C)cccc2C)C(=O)/C1=N\NC(N)=S (centres undefined)
inactive: SK-MEL-2 > 100 µM | OVCAR-8 > 100 µM | RPMI-8226 89.5 µM | A549 > 100 µM | SF-539 > 100 µM | HCC 2998 > 100 µM | K562 92.9 µM | OVCAR-3 > 100 µM | NCI-H522 > 100 µM | EKVX > 100 µM | HOP-62 > 100 µM | HT-29 > 100 µM | OVCAR-4 > 100 µM | RXF 393 10.4 µM

COc1cc(/C=C2\C(=O)N(C(=O)c3ccc(NC(C)=O)cc3)N=C2C)ccc1O
inactive: CAKI-1 > 100 µM | OVCAR-8 > 100 µM | RPMI-8226 > 100 µM | A549 > 100 µM | SR > 100 µM | SF-539 > 100 µM | HCC 2998 > 100 µM | K562 > 100 µM | OVCAR-3 > 100 µM | NCI-H522 > 100 µM | EKVX > 100 µM | HOP-62 > 100 µM | HT-29 > 100 µM | OVCAR-4 > 100 µM

O/N=C1/C(=C/c2ccc(Cl)cc2)CCCC1C(NO)c1ccc(Cl)cc1 (centres undefined)
inactive: CAKI-1 23.7 µM | SK-MEL-2 27.1 µM | OVCAR-8 21.1 µM | RPMI-8226 20.9 µM | A549 20.3 µM | SF-539 25.2 µM | HCC 2998 15.5 µM | K562 24.4 µM | OVCAR-3 16.8 µM | NCI-H522 20.3 µM | EKVX 30.1 µM | HOP-62 22.8 µM | HT-29 19.2 µM | OVCAR-4 15.6 µM | RXF 393 12 µM

OCC1C(/C=C/c2ccoc2)ON2CCCC12 (centres undefined)
inactive: CAKI-1 > 100 µM | SK-MEL-2 > 100 µM | OVCAR-8 > 100 µM | A549 > 100 µM | SF-539 > 100 µM | HCC 2998 > 100 µM | NCI-H522 > 100 µM | EKVX > 100 µM | HOP-62 > 100 µM | HT-29 > 100 µM | OVCAR-4 > 100 µM | RXF 393 > 100 µM

Nc1c(-c2ccc(Br)cc2)[n+]([O-])c2ccccc2[n+]1[O-]
inactive: CAKI-1 > 100 µM | SK-MEL-2 > 100 µM | OVCAR-8 > 100 µM | RPMI-8226 27.9 µM | A549 92 µM | SF-539 > 100 µM | K562 64.9 µM | OVCAR-3 92 µM | NCI-H522 52.6 µM | EKVX > 100 µM | HOP-62 > 100 µM | HT-29 > 100 µM | OVCAR-4 > 100 µM

CCc1ccccc1NC(=O)C1=C(C)NC(C)=C(C(=O)Nc2ccccc2CC)C1c1ccc(NC(C)=O)cc1
inactive: CAKI-1 43.1 µM | SK-MEL-2 22.4 µM | OVCAR-8 33.9 µM | RPMI-8226 17 µM | A549 51.1 µM | SF-539 25.9 µM | HCC 2998 19.5 µM | K562 23.1 µM | OVCAR-3 33.2 µM | NCI-H522 20.8 µM | EKVX 60.7 µM | HOP-62 36.7 µM | HT-29 37.7 µM | OVCAR-4 35.1 µM | RXF 393 17.4 µM

C[Si](C)(C)C#C[I+]c1ccccc1
inactive: CAKI-1 42.8 µM | SK-MEL-2 > 100 µM | OVCAR-8 19.6 µM | A549 > 100 µM | SF-539 28.9 µM | HCC 2998 > 100 µM | K562 41.1 µM | OVCAR-3 32.7 µM | NCI-H522 9.4 µM | EKVX 52.1 µM | HOP-62 > 100 µM | HT-29 32.9 µM | OVCAR-4 36.2 µM | RXF 393 47.4 µM

CC(C)=CCSC1CC2C(CC1(C)O)C2(C)C (centres undefined)
inactive: CAKI-1 14.6 µM and 12.5 µM | OVCAR-8 16.6 µM and 14.1 µM | RPMI-8226 17.5 µM and 21.9 µM | A549 11.6 µM and 16.6 µM | SF-539 18 µM and 15.6 µM | HCC 2998 1.83 µM and 2.82 µM | OVCAR-3 17.1 µM and 11.4 µM | EKVX 12.9 µM and 16.1 µM | HOP-62 16.4 µM and 16.6 µM | HT-29 15.7 µM and 14.9 µM | OVCAR-4 19.7 µM and 15.8 µM

CN(C)/C(=N/C(=S)Nc1ccccc1)SCc1ccccc1
inactive: CAKI-1 24.2 µM | SK-MEL-2 49.9 µM | OVCAR-8 56.4 µM | RPMI-8226 10.3 µM | A549 32 µM | SF-539 > 100 µM | HCC 2998 36.4 µM | K562 12.3 µM | OVCAR-3 56.8 µM | NCI-H522 2.73 µM | EKVX > 100 µM | HOP-62 71.6 µM | HT-29 3.88 µM | OVCAR-4 5.47 µM | RXF 393 27.7 µM

O=[N+]([O-])c1cccc(C2N3CCCCC3[C@@H]3c4[nH]c5ccccc5c4CCN23)c1 (some centres undefined)
inactive: CAKI-1 28.4 µM | SK-MEL-2 10.1 µM | OVCAR-8 31.4 µM | RPMI-8226 10.9 µM | A549 14 µM | SF-539 14.8 µM | K562 3.88 µM | OVCAR-3 15.7 µM | EKVX 23.1 µM | HOP-62 16.3 µM | HT-29 6.82 µM | OVCAR-4 16 µM | RXF 393 5.86 µM

Cc1ccc(-c2cc(=S)n(-c3ccccc3)c3[nH]c(=S)n(-c4ccccc4)c(=N)c23)cc1
inactive: CAKI-1 > 100 µM | SK-MEL-2 > 100 µM | OVCAR-8 > 100 µM | RPMI-8226 > 100 µM | A549 > 100 µM | SR > 100 µM | SF-539 > 100 µM | HCC 2998 > 100 µM | K562 > 100 µM | OVCAR-3 > 100 µM | NCI-H522 77.8 µM | HOP-62 > 100 µM | HT-29 > 100 µM | OVCAR-4 > 100 µM

c1ccc(-c2nnc(-c3nn(-c4ccccc4)c4nc5ccccc5nc34)o2)cc1
inactive: CAKI-1 > 100 µM | SK-MEL-2 > 100 µM | OVCAR-8 51.9 µM | RPMI-8226 39.1 µM | A549 > 100 µM | SF-539 68.4 µM | HCC 2998 > 100 µM | K562 31 µM | OVCAR-3 66.8 µM | NCI-H522 44.9 µM | EKVX > 100 µM | HOP-62 > 100 µM | HT-29 > 100 µM | OVCAR-4 > 100 µM | RXF 393 4.3 µM

O=C(c1ccccc1)c1nnn(Cc2ccccc2Cn2nnc(C(=O)c3ccccc3)c2C(=O)c2ccccc2)c1C(=O)c1ccccc1
inactive: CAKI-1 > 100 µM | SK-MEL-2 > 100 µM | OVCAR-8 > 100 µM | RPMI-8226 > 100 µM | A549 48.2 µM | SR > 100 µM | SF-539 > 100 µM | HCC 2998 > 100 µM | K562 > 100 µM | OVCAR-3 > 100 µM | NCI-H522 > 100 µM | EKVX 47.6 µM | HOP-62 > 100 µM | HT-29 > 100 µM | OVCAR-4 > 100 µM

Nc1cc(C(=O)NC2C3CC4CC(C3)CC2C4)nc(S)n1 (centres undefined)
inactive: CAKI-1 > 100 µM | OVCAR-8 > 100 µM | A549 > 100 µM | SR > 100 µM | SF-539 > 100 µM | HCC 2998 > 100 µM | K562 > 100 µM | OVCAR-3 > 100 µM | NCI-H522 > 100 µM | EKVX > 100 µM | HOP-62 > 100 µM | HT-29 > 100 µM | OVCAR-4 > 100 µM | RXF 393 > 100 µM
